Each compound was assayed against T1, human GPR120 (Homo sapiens, UniProt Q5NUL3) (assay: GPR120 β-Arrestin Recruitment Assay (PathHunter, CHO-K1 cells)). Conditions: CHO-K1; @ 10 uM; read-out: percent activation at a single concentration (printed in the β-Arr pEC50 column).
T1 construct: host or cells: CHO-K1
Type: cell-based
Description: This in vitro assay tests compounds' ability to activate intracellular signaling via 3-Arrestin recruitment to heterologously expressed human GPR120. This functional cellular assay utilizes enzyme fragment complementation with β-galactosidlase (β-gal) as a functional reporter (DiscoveRx PathlHunter® β-Arrestin assay platform). The human (GPR120 receptor (GenBank accession Number NM_181745) was fused in frame with the small enzyme fragment ProLink™ and co-expressed in CHO-K1 cells with a fusion protein of β-Arrestin 2 and the larger, N-terminal deletion mutant of β-gal. Activation by a GPR120 agonist stimulates binding of β-arrestin to the ProLink-tagged GPCR and forces complementation of the two enzyme fragments, resulting in the formation of an active β-gal enzyme. This interaction leads to an increase in enzyme activity that can be measured using chemiluminescent PathHunter® Detection Reagents.
One day prior to the assay, cells were seeded in a total volume of 20 μl of growth medium into white walled 384-well microplates and incubated at 37° C./5% CO2 overnight. On the day of the assay, growth medium was removed and 20 μl assay buffer (HBSS+10 mM HEPES+0.1% heat-inactivated BSA) were added to each well.
Test compounds were dissolved in 100% DMSO to a concentration of 10 mM to provide stock solutions. Serial dilutions were performed from stock solutions into assay buffer to obtain intermediate concentrations of 5-fold higher than the concentrations to be tested. 5 μl of the 5× compound solutions were added to the cells and the assay plates were incubated at 37° C. for 90 minutes. The final concentration of compounds tested in the assay ranged from 1.5 nM to 100 μM. Following incubation, 12.5 μl of PathHunter® detection reagent were added to each well, and plates were incubated at room temperature for 60 minutes. Chemiluminescence was read using an EnVision plate reader (PerkinElmer), raw data were expressed as relative light units (RLU).
To determine agonist potencies (EC50 values), non-linear least-squares curve fits of the raw data (RLU) were performed in the GraphPad Prism software package, using the 4-parameter model with variable Hill Slope:
Reported below in Table 1 are pEC50 values (pEC50=−log(EC50) from curve fit) for compounds of Formula I in this assay, β-Arr pEC50 Alternatively, percent activation at a single concentration is reported.

T1 sequence (Q5NUL3 1-377 isoform Q5NUL3-1): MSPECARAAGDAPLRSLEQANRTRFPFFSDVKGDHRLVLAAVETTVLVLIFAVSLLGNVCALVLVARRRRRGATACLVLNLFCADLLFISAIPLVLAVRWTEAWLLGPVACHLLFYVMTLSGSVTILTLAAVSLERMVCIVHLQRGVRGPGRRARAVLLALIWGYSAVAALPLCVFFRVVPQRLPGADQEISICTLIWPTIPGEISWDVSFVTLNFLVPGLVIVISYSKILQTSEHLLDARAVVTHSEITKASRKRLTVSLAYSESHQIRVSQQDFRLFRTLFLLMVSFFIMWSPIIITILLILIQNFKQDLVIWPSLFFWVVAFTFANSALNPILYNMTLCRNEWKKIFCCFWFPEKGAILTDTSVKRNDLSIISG
T1 sequence (P32121 whole entry partner): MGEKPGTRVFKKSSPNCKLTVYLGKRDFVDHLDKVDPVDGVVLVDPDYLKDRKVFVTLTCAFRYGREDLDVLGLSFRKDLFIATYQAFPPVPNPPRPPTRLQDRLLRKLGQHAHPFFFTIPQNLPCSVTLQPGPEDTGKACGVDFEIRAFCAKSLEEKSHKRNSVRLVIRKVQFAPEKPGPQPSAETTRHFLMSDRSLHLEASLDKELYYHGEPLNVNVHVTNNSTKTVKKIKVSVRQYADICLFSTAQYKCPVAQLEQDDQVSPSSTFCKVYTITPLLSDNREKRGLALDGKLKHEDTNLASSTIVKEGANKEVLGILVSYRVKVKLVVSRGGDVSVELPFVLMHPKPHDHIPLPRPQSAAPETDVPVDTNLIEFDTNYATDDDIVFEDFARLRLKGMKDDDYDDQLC

Compound	activation at 10 µM
CC1(C)c2ccccc2CN1c1ccnc(Oc2cccnc2)n1 [Compound 2]	18%
c1cncc(Oc2nccc(N3Cc4ccccc4C3)n2)c1 [Compound 13]	9%
c1cncc(Oc2ccnc(N3Cc4ccccc4C3)n2)c1 [Compound 14]	8%
O=S1(=O)c2ccccc2CN1c1ccnc(Oc2ccncc2)n1 [Compound 15]	3%
Cc1ncccc1Oc1nccc(N2Cc3ccccc3S2(=O)=O)n1 [Compound 17]	4%
CC(=O)Nc1cccc(Oc2nccc(N3Cc4ccccc4S3(=O)=O)n2)c1 [Compound 24]	1%
O=S1(=O)c2ccccc2CN1c1ccnc(Oc2cncnc2)n1 [Compound 25]	16%
O=S1(=O)c2ccccc2CN1c1ccnc(Oc2ccnc3ccccc23)n1 [Compound 27]	9%
O=S1(=O)c2ccccc2CN1c1ccnc(-n2ccc3ccncc32)n1 [Compound 30]	17%
O=S1(=O)c2ccccc2CN1c1ccnc(-n2cnc3ccccc32)n1 [Compound 31]	11%
O=S1(=O)c2ccccc2CN1c1ccnc(OCc2cccnc2)n1 [Compound 71]	1%

Same assay, conditions: pEC50=−log(EC50) from curve fit; CHO-K1 cells, 90 min incubation; read-out: β-Arr pEC50 (converted)

Compound	EC50
O=S1(=O)c2cccc(Cl)c2CN1c1ccnc(Oc2cccnc2)n1 [Compound 3]	> 31.6 µM
O=S1(=O)c2cc(Cl)ccc2CN1c1ccnc(Oc2cccnc2)n1 [Compound 4]	> 31.6 µM
COc1ccc2c(c1Cl)S(=O)(=O)N(c1ccnc(Oc3cccnc3)n1)C2 [Compound 5]	> 10 µM
CC1(C)c2ccccc2S(=O)(=O)N1c1ccnc(Oc2cccnc2)n1 [Compound 6]	> 10 µM
O=S1(=O)c2ccccc2CN1c1ccnc(OC2CC(F)(F)C2)n1 [Compound 7]	12.6 µM
CC1c2ccccc2S(=O)(=O)N1c1ccnc(Oc2cccnc2)n1 (stereo not drawn) [Compound 8]	12.6 µM
O=C1c2cccnc2CN1c1ccnc(Oc2cccnc2)n1 [Compound 9]	> 31.6 µM
O=C1c2ncccc2CN1c1ccnc(Oc2cccnc2)n1 [Compound 10]	> 31.6 µM
COc1ccc2c(c1)C(=O)N(c1ccnc(Oc3cccnc3)n1)C2 [Compound 11]	> 10 µM
COc1ccc2c(c1)CN(c1ccnc(Oc3cccnc3)n1)C2=O [Compound 12]	> 31.6 µM
Cc1ccc(Oc2nccc(N3Cc4ccccc4S3(=O)=O)n2)cn1 [Compound 18]	> 10 µM
CN(C)c1cccc(Oc2nccc(N3Cc4ccccc4S3(=O)=O)n2)c1 [Compound 23]	3.16 µM
O=S1(=O)c2ccccc2CN1c1ccnc(Oc2cnc3ccccc3c2)n1 [Compound 26]	12.6 µM
O=C1c2ccccc2CN1c1ccnc(Oc2cccnc2)n1 [Compound 28]	12.6 µM
O=S1(=O)c2ccccc2CN1c1ccnc(-n2ccc3ccccc32)n1 [Compound 29]	15.8 µM
O=S1(=O)c2ccccc2CN1c1ccnc(Oc2cncc3ccccc23)n1 [Compound 32]	25.1 µM
O=S1(=O)c2ccccc2CN1c1ccnc(Oc2cc(Cl)cc(Cl)c2)n1 [Compound 38]	15.8 µM
COc1cccc(Oc2nccc(N3Cc4ccccc4S3(=O)=O)n2)c1 [Compound 39]	> 10 µM
N#Cc1ccc(Oc2nccc(N3Cc4ccccc4S3(=O)=O)n2)cc1 [Compound 40]	> 10 µM
O=S1(=O)c2ccccc2CN1c1ccnc(Oc2ccc(Oc3ccccc3)cc2)n1 [Compound 43]	> 31.6 µM
Cc1cc(Cl)cc(Oc2nccc(N3Cc4ccccc4S3(=O)=O)n2)c1 [Compound 46]	5.01 µM
O=S1(=O)c2ccccc2CN1c1ccnc(Oc2ccc(C(F)(F)F)cc2)n1 [Compound 47]	6.31 µM
O=S1(=O)c2ccccc2CN1c1ccnc(Oc2ccc(-n3cncn3)cc2)n1 [Compound 48]	> 10 µM

Compound	EC50
O=S1(=O)c2ccccc2CN1c1ccnc(Oc2ccc(OC(F)(F)F)cc2)n1 [Compound 49]	2.51 µM
O=S1(=O)c2ccccc2CN1c1ccnc(Oc2cncc(Br)c2)n1 [Compound 52]	12.6 µM
Cc1cc(C)c(Oc2nccc(N3Cc4ccccc4S3(=O)=O)n2)cn1 [Compound 53]	> 10 µM
O=S1(=O)c2ccccc2CN1c1ccnc(Oc2ccc(Cl)nc2)n1 [Compound 54]	> 10 µM
N#Cc1ccc(Oc2nccc(N3Cc4ccccc4S3(=O)=O)n2)cn1 [Compound 55]	> 10 µM
O=S1(=O)c2ccccc2CN1c1ccnc(Oc2ccc(OC(F)(F)F)cc2Cl)n1 [Compound 57]	1 µM
O=S1(=O)c2ccccc2CN1c1ccnc(OC2CCNCC2)n1 [Compound 62]	> 10 µM
O=S1(=O)c2ccccc2CN1c1ccnc(OC2CCOCC2)n1 [Compound 64]	> 10 µM
O=S1(=O)c2ccccc2CN1c1ccnc(OC2CCOC2)n1 (stereo not drawn) [Compound 65]	> 10 µM
CC(=O)N1CCCC(Oc2nccc(N3Cc4ccccc4S3(=O)=O)n2)C1 (stereo not drawn) [Compound 66]	> 10 µM
O=S1(=O)c2ccccc2CN1c1ccnc(OCC2CCCCC2)n1 [Compound 68]	2.51 µM
O=S1(=O)c2ccccc2CN1c1ccnc(OCC2CCC2)n1 [Compound 69]	3.98 µM
O=S1(=O)c2ccccc2CN1c1ccnc(OCc2ccccc2)n1 [Compound 70]	15.8 µM
O=S1(=O)c2ccccc2CN1c1ccnc(OCc2ccncc2)n1 [Compound 73]	> 10 µM
CN1CCC(Oc2nccc(N3Cc4ccccc4S3(=O)=O)n2)CC1 [Compound 74]	> 31.6 µM
NC(=O)COc1nccc(N2Cc3ccccc3S2(=O)=O)n1 [Compound 75]	> 31.6 µM
O=C(COc1nccc(N2Cc3ccccc3S2(=O)=O)n1)Nc1ccccc1 [Compound 76]	> 31.6 µM
N#Cc1cc(N2Cc3ccccc3S2(=O)=O)nc(Oc2cccnc2)n1 [Compound 81]	6.31 µM
CC(C)c1cc(N2Cc3ccccc3S2(=O)=O)nc(Oc2cccnc2)n1 [Compound 84]	> 10 µM
COc1ccc(-c2cc(N3Cc4ccccc4S3(=O)=O)nc(Oc3cccnc3)n2)cc1 [Compound 85]	> 31.6 µM
CNC(=O)c1cc(N2Cc3ccccc3S2(=O)=O)nc(Oc2cccnc2)n1 [Compound 88]	> 10 µM
COc1ccc2c(c1)S(=O)(=O)N(c1nccc(Oc3cccnc3)n1)C2 [Compound 90]	12.6 µM
Cc1cc(N2Cc3ccccc3S2(=O)=O)nc(OC2CC(F)(F)C2)n1 [Compound 91]	3.98 µM

Compound	EC50
Cc1cc(OC2CC(F)(F)C2)nc(N2Cc3ccccc3S2(=O)=O)n1 [Compound 92]	3.16 µM
O=S1(=O)c2ccccc2CN1c1nccc(OC2CC(F)(F)C2)n1 [Compound 94]	> 10 µM
COc1cc(N2Cc3ccccc3S2(=O)=O)nc(Oc2ccc(Cl)cc2)n1 [Compound 95]	0.398 µM
COc1cc(N2Cc3ccccc3S2(=O)=O)nc(Oc2ccccc2)n1 [Compound 100]	0.158 µM
COc1cc(Oc2ccccc2)nc(N2Cc3ccccc3S2(=O)=O)n1 [Compound 102]	0.794 µM
O=S1(=O)c2ccccc2CN1c1cc(C(F)(F)F)nc(Oc2ccc(F)cc2)n1 [Compound 103]	2 µM
Cc1cc(Oc2ccc(F)cc2)nc(N2Cc3ccccc3S2(=O)=O)n1 [Compound 104]	3.98 µM
Cc1cc(Oc2ccccc2)nc(N2Cc3ccccc3S2(=O)=O)n1 [Compound 105]	2.51 µM
Cc1cc(N2Cc3ccccc3S2(=O)=O)nc(Oc2ccccc2)n1 [Compound 107]	0.794 µM
CN1CCN(c2cc(N3Cc4ccccc4S3(=O)=O)nc(Oc3cccnc3)n2)CC1 [Compound 108]	> 31.6 µM
CS(=O)(=O)N1CC(Oc2nccc(N3Cc4ccccc4S3(=O)=O)n2)C1 [Compound 109]	> 31.6 µM
CC(=O)N1CC(Oc2nccc(N3Cc4ccccc4S3(=O)=O)n2)C1 [Compound 110]	> 31.6 µM
CC(=O)N1CCC(Oc2nccc(N3Cc4ccccc4S3(=O)=O)n2)CC1 [Compound 111]	> 10 µM
CC(=O)N1CCC(Oc2nccc(N3Cc4ccccc4S3(=O)=O)n2)C1 (stereo not drawn) [Compound 112]	> 31.6 µM
O=C1c2cccc(Br)c2CN1c1ccnc(Oc2cccnc2)n1 [Compound 113]	12.6 µM
Cc1cc(Oc2cccnc2)nc(N2Cc3ccccc3S2(=O)=O)n1 [Compound 115]	6.31 µM
COc1ccc2c(c1)CN(c1nccc(Oc3cccnc3)n1)S2(=O)=O [Compound 116]	39.8 µM
O=C1c2ccccc2CN1c1nccc(Oc2cccnc2)n1 [Compound 117]	> 10 µM
Cc1cccc2c1CN(c1nccc(Oc3cccnc3)n1)C2 [Compound 118]	1 µM
O=C1Cc2ccccc2N1c1nccc(Oc2cccnc2)n1 [Compound 120]	> 31.6 µM
O=S1(=O)c2ccccc2CN1c1cccc(Oc2ccccc2Cl)n1 [Compound 124]	> 31.6 µM

From patent US12116362B2, “Monocyclic compounds useful as GPR120 modulators” (Valo Health, Inc., priority 2016, dated 2024)
